Measurements published in publication PMC9963009, “Investigation of the Protective Effect for GcMAF by a Glycosidase Inhibitor and the Glycan Structure of Gc Protein” (Molecules, 2023).

Biological target: T1, α-N-acetylgalactosaminidase (α-GalNAc-ase) from chicken liver (Gallus gallus, UniProt Q90744)
T1 construct: gene NAGA; commercial enzyme from chicken liver
T1 sequence (Q90744 1-405): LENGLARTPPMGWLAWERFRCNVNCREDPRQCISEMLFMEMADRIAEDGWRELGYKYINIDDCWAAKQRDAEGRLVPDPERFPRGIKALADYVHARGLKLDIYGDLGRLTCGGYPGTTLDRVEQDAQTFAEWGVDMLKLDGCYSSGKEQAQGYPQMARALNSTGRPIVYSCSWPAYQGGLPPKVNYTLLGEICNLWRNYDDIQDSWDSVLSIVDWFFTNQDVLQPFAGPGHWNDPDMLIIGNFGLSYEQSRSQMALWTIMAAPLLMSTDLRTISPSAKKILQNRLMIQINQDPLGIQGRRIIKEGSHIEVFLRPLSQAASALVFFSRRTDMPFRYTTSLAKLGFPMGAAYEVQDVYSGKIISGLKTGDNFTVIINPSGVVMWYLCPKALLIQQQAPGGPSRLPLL
Assay: LC-MS of Gc protein glycopeptides after treatment with a mix of three glycosidases with/without […] inhibitor
Format: biochemical

`OCC1NC(CNCCc2ccccc2)C(O)C1O` (stereo not shown) [iminocyclitol, 2-Hydroxymethyl-5-(phenethylaminomethyl)-pyrrolidine-3,4-diol] was tested, and the “LC-MS of Gc protein glycopeptides after treatment with a mix of three glycosidas” value was “the inhibitory activity of iminocyclitol against α-GalNAc-ase was also observed (Figure 4c)”.
